# Tests used:
# human α4β7 = target: T1, human α4β7 (Homo sapiens, UniProt P13612+P26010); experiment: α4β7-K562 Cell Adhesion Assay (α4β7 Mediated Adhesion/VCAM-1); format: cell-based; settings: K562 cells expressing human α4β7 on recombinant hVCAM-1; read-out: α4β7 IC50
# T1 construct: expressed in transfected cells
# T1 sequence (P13612 34-1032): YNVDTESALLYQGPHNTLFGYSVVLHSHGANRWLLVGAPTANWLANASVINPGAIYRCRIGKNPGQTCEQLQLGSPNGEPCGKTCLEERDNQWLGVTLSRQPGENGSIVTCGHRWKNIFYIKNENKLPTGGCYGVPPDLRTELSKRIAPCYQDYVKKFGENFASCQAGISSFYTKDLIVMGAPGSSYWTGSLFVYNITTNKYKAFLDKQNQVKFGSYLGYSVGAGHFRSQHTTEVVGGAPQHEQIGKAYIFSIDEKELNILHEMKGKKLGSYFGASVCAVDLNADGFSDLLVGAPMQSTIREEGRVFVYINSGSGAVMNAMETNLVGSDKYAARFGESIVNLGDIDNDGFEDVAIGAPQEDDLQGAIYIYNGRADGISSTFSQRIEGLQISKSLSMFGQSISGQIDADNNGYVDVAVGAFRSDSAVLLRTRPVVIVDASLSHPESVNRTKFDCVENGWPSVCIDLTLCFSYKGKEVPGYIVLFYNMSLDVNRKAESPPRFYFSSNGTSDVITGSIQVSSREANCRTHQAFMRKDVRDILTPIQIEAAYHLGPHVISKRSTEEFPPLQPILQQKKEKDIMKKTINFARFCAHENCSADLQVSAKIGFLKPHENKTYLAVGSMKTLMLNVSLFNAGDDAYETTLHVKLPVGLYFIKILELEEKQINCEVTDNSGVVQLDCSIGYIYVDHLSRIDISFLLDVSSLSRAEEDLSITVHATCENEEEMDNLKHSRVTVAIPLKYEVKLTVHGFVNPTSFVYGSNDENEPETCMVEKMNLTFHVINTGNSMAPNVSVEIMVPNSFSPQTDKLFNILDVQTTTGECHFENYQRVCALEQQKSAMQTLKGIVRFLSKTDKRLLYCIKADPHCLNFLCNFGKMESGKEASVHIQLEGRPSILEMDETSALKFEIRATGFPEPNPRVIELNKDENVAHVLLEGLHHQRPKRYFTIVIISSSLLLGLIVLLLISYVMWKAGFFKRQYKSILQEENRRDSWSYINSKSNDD
# T1 sequence (P26010 20-798): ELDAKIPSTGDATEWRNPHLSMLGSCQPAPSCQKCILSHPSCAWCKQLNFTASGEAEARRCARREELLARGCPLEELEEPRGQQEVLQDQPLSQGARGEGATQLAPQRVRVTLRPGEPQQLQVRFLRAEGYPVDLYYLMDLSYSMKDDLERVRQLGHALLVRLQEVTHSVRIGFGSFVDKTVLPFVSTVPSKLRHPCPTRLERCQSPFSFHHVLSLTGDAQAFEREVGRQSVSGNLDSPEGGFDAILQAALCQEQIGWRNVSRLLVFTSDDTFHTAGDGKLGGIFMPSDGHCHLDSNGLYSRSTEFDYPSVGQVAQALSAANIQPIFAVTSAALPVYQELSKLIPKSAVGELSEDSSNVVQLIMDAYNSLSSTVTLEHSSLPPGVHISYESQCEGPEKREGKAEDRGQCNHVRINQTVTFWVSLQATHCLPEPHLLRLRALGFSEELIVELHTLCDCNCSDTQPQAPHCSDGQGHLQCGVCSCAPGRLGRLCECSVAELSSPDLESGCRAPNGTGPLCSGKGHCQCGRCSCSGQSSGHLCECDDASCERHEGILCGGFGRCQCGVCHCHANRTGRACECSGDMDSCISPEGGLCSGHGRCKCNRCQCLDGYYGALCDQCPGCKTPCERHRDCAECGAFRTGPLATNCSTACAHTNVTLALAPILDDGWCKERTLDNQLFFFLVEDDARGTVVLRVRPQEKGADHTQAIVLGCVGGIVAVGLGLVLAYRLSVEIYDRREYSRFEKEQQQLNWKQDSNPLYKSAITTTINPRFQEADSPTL
# How it was run: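 Calcein AM-labelled K562 cells stably expressing human α4β7 adhered for 1 h at room temperature, with compound, to wells coated with recombinant hVCAM-1 (4.0 μg/mL, pH 9.0) and blocked with PBS/1% BSA. After washing, cells were lysed in 1% SDS/Tris pH 8.0 and fluorescence read at 485/530 nm.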
# α4β1 = α4β1 (Homo sapiens, UniProt P05556+P13612); experiment: Ramos Cell Adhesion Assay (α4β1 Mediated Adhesion/VCAM-1); format: cell-based; set-up: Ramos cells, (50 μL at 2×10^6/mL) labeled with 5 μM Calcein AM; endogenous in cells; host or cells: Ramos cells; settings: Ramos cells on recombinant hVCAM-1; read-out: α4β1 IC50
# How it was run: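 Ramos cells labeled with 5 μM Calcein AM adhered for 1 h at room temperature to wells coated with recombinant human VCAM-1 (4.0 μg/mL, pH 9.0) in presence of compounds. After washing, cells lysed in SDS buffer; fluorescence read at 485/530 nm.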
# Sequence of α4β1 (P05556 21-798, one chain of several): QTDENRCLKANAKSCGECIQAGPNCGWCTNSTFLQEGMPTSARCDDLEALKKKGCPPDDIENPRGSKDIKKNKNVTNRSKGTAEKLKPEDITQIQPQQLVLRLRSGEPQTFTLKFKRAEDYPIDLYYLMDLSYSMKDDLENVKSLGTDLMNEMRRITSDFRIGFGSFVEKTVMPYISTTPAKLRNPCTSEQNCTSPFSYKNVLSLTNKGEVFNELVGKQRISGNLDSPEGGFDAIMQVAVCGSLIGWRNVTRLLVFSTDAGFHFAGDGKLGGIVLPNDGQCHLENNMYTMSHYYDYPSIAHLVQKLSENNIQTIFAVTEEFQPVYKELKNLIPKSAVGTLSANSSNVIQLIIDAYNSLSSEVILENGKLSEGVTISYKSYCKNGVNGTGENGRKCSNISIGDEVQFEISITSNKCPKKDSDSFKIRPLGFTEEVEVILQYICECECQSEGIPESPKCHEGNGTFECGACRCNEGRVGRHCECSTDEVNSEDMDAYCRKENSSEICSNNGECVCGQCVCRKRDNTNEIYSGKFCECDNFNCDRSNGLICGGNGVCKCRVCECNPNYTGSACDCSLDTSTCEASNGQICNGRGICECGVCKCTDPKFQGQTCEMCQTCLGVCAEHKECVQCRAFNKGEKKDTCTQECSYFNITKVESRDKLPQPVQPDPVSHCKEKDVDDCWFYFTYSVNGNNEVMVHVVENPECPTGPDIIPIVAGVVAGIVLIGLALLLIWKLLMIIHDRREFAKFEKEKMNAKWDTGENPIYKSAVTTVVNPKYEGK
Structure (SMILES),IC50 (human α4β7) [nM],IC50 (α4β1) [nM]
"CC(C)(C)CCN1C2CCC(CC2)[C@H]1C(=O)N[C@@H](Cc1ccc(NC(=O)c2c(Cl)cncc2Cl)cc1)C(=O)O [Cpd 16, 3-{4-[(3,5-dichloro-pyridine-4-carbonyl)-amino]-phenyl}-2-{[2-(3,3-dimethyl-butyl)-2-aza-bicyclo[2.2.2]octane-3-carbonyl]-amino}-propionic acid]",94,47
O=C(Nc1ccc(CC(NC(=O)C2C3CCC(CC3)N2C(=O)Cc2ccsc2)C(=O)O)cc1)c1c(Cl)cncc1Cl (stereo not shown) [Cpd 3],41,43

# Source: US20060223846A1, “Aza-bridged-bicyclic amino acid derivatives as alpha4 integrin antagonists” (priority 2005, published 2006)
